Experiments:
[1] = Safety and tolerability in patients with relapsed and refractory B cell malignancies; assay type: in vivo; details: for Anemia, Grade ≥ 3 / Clostridium difficile colitis, Grade ≥ 3 / Clostridium difficile infection, Grade ≥ 3 / Cognitive disorder, Grade ≥ 3 / Dyspnea, Grade ≥ 3 / Hypertension, Grade ≥ 3 / Neutropenia, Grade ≥ 3 / Pain in extremity, Grade ≥ 3 / Upper resp. tract infection, Grade ≥ 3: all patients
Description: Compound 149 was administered to human patients in a Phase 1a/lb trial investigating safety and tolerability in relapsed and refractory B cell malignancies. Compound 149 was administered as a once daily oral dose first in an accelerated Phase 1a dose escalation starting at 100 mg on Day 1. The first dose levels are explored in a single patient cohort until a grade 2 adverse event has been observed. Thereafter, a traditional 3+3 escalation design is used. This 100 mg starting dose was predicted to provide similar exposure as that observed in non-human primate studies. Once a dose is selected based on all safety, efficacy, pharmacokinetic, and pharmacodynamic data available, the trial will expand in up to five expansion cohorts.
Patients were treated at four different dosage levels of Compound 149: dose level 1 (100 mg), dose level 2 (200 mg), dose level 3 (300 mg), and dose level 4 (400 mg). The objective of the study was to assess safety and tolerability, to identify maximum tolerated dose, and to evaluate PK/PD.
Safety population included 19 subjects, and data is summarize in Table 6 below. Two subjects were assigned to the 100 mg cohort but treatment was not entered in the electronic data capture (EDC) at time of extract.

[2] = molecular target: T1, Aiolos (Homo sapiens, UniProt Q96SW2+Q9UKT9); test: Aiolos degradation in the patient; assay type: in vivo; details: DLBCL patient, 300 mg
T1 construct: Compound 149 also degraded Ikaros and Aiolos; endogenous in cells
T1 sequence (Q9UKT9 whole entry): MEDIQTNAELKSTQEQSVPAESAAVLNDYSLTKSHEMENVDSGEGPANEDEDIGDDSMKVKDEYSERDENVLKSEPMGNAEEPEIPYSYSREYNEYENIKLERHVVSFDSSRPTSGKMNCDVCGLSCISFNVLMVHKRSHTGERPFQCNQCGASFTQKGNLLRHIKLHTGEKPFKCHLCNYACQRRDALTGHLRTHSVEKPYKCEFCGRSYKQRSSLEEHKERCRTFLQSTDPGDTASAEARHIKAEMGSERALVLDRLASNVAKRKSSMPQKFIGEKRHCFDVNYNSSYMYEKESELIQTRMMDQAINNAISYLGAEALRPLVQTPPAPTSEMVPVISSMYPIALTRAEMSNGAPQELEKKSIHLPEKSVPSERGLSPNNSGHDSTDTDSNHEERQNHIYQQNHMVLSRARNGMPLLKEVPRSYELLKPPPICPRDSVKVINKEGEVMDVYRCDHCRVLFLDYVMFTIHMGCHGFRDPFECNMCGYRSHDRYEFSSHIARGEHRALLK
T1 sequence (Q96SW2 whole entry): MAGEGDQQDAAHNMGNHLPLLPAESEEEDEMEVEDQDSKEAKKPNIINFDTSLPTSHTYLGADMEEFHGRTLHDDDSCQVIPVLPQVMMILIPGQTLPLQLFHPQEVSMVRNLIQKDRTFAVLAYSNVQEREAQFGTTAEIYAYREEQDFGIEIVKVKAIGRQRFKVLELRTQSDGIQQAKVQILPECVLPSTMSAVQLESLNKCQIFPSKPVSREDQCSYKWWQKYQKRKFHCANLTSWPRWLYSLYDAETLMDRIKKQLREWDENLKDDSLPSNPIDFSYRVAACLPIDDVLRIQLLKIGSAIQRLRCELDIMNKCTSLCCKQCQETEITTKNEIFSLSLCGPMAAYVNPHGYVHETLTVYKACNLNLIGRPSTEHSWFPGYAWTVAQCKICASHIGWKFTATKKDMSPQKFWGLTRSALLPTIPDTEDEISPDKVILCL
T1 sequence (Q16531 whole entry partner): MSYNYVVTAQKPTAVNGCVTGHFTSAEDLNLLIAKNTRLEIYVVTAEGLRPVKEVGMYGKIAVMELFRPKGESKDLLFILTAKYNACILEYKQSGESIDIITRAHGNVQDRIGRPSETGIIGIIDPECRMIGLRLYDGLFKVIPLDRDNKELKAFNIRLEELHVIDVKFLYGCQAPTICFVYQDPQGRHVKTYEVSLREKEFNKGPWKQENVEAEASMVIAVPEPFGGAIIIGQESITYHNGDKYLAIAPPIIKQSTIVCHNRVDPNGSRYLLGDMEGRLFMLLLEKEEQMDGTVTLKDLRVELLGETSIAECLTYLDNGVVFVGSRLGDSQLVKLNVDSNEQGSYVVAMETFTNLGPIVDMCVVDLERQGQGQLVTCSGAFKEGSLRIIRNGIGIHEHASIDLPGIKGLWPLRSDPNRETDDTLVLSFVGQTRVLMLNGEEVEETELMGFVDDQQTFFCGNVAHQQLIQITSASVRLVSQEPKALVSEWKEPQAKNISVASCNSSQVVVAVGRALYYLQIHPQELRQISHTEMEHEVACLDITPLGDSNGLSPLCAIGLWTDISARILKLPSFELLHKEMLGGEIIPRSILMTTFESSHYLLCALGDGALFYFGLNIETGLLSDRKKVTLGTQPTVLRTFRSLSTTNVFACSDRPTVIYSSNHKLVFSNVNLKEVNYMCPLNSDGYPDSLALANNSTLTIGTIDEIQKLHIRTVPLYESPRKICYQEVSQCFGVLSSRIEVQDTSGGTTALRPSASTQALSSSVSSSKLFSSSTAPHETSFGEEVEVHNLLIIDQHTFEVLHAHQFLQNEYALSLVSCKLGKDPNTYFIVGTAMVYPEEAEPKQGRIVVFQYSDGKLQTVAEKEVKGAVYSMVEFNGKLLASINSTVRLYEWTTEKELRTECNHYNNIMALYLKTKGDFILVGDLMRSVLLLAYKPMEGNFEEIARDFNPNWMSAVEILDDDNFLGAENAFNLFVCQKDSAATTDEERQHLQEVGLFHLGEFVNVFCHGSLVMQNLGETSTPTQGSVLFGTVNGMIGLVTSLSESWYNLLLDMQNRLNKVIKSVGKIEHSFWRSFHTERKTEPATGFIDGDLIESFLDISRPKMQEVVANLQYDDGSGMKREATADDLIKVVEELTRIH
Description: (§1) The patient's response was checked at 8 weeks and 16 weeks. […] Gradual BTK degradation was observed until day 8 day of receiving the 300 mg dose of Compound 149, wherein the maximum BTK degradation was achieved on the 8th day. Consistent with its design, Compound 149 also degraded Ikaros and Aiolos which is responsible for the compound's immunomodulatory activity. […] In the 16-week assessment image, maximum standard uptake value (Max SUV) reduced from 17.6 at screening to 2.5 at the 16-week assessment time with the Deauville five-point scale (5PS; Barrington et al., 2010, Eur J Nucl Med Mol Imaging 37 (10): 1824-33) reducing from 5 to 2.

[3] = system: patient with non-GCB (ABC subtype) DLBCL; test: Response of a patient with non-GCB (ABC subtype) DLBCL (Lugano criteria, FDG-PET CT scan); assay type: in vivo, human; details: 300 mg
Description: A heavily pre-treated patient with non-GCB (ABC subtype) DLBCL was enrolled in Compound 149 phase 1 dose-escalation. The patient was treated at a single dosage level of Compound 149: […] (300 mg) for a period of 5 months and ongoing. The objective of the study was to assess safety and tolerability, to identify maximum tolerated dose, and to evaluate PK/PD.
as §1

[4] = system: lymphoma cells harboring BTK-C481S mutation; test: Killing of lymphoma cells harboring BTK-C481S mutation (FIG. 6); assay type: cell-based
[5] = system: novel BTK mutations emerging post BTKi-treatment; test: Degradation of novel BTK mutations emerging post BTKi-treatment (FIG. 6); assay type: cell-based; details: multiple novel BTK mutations emerging post BTKi-treatment

NC(=O)c1ncc(N2CCCCC2)nc1Nc1ccc(C2CCN(C[C@@H]3CCN(c4ccc5c(c4)C(=O)N(C4CCC(=O)NC4=O)C5=O)C3)CC2)cc1 (some centres unmarked) [Compound 149]
Anemia, Grade ≥ 3 ([1]; 100 mg (N = 10)): 1 (10%) n (%)
Clostridium difficile colitis, Grade ≥ 3 ([1]; 100 mg (N = 10)): 0 (0%) n (%)
Clostridium difficile infection, Grade ≥ 3 ([1]; 100 mg (N = 10)): 0 (0%) n (%)
Cognitive disorder, Grade ≥ 3 ([1]; 100 mg (N = 10)): 0 (0%) n (%)
Dyspnea, Grade ≥ 3 ([1]; 100 mg (N = 10)): 0 (0%) n (%)
Hypertension, Grade ≥ 3 ([1]; 100 mg (N = 10)): 0 (0%) n (%)
Neutropenia, Grade ≥ 3 ([1]; 100 mg (N = 10)): 1 (10%) n (%)
Pain in extremity, Grade ≥ 3 ([1]; 100 mg (N = 10)): 0 (0%) n (%)
Upper resp. tract infection, Grade ≥ 3 ([1]; 100 mg (N = 10)): 0 (0%) n (%)
Anemia, Grade ≥ 3 ([1]; 200 mg (N = 6)): 1 (16.7%) n (%)
Clostridium difficile colitis, Grade ≥ 3 ([1]; 200 mg (N = 6)): 1 (16.7%) n (%)
Clostridium difficile infection, Grade ≥ 3 ([1]; 200 mg (N = 6)): 1 (16.7%) n (%)
Cognitive disorder, Grade ≥ 3 ([1]; 200 mg (N = 6)): 0 (0%) n (%)
Dyspnea, Grade ≥ 3 ([1]; 200 mg (N = 6)): 1 (16.7%) n (%)
Hypertension, Grade ≥ 3 ([1]; 200 mg (N = 6)): 1 (16.7%) n (%)
Neutropenia, Grade ≥ 3 ([1]; 200 mg (N = 6)): 3 (50%) n (%)
Pain in extremity, Grade ≥ 3 ([1]; 200 mg (N = 6)): 0 (0%) n (%)
Upper resp. tract infection, Grade ≥ 3 ([1]; 200 mg (N = 6)): 1 (16.7%) n (%)
Anemia, Grade ≥ 3 ([1]; 300 mg (N = 3)): 0 (0%) n (%)
Clostridium difficile colitis, Grade ≥ 3 ([1]; 300 mg (N = 3)): 0 (0%) n (%)
Clostridium difficile infection, Grade ≥ 3 ([1]; 300 mg (N = 3)): 0 (0%) n (%)
Cognitive disorder, Grade ≥ 3 ([1]; 300 mg (N = 3)): 1 (33.3%) n (%)
Dyspnea, Grade ≥ 3 ([1]; 300 mg (N = 3)): 0 (0%) n (%)
Hypertension, Grade ≥ 3 ([1]; 300 mg (N = 3)): 0 (0%) n (%)
Neutropenia, Grade ≥ 3 ([1]; 300 mg (N = 3)): 2 (66.7%) n (%)
Pain in extremity, Grade ≥ 3 ([1]; 300 mg (N = 3)): 1 (33.3%) n (%)
Upper resp. tract infection, Grade ≥ 3 ([1]; 300 mg (N = 3)): 0 (0%) n (%)
dose limiting toxicity ([1]; 300 mg, a CLL patient, cognitive AE believed related to immunomodulatory activity): Dose limiting toxicity was observed
dose limiting toxicity (DLT) or serious adverse event (SAE) ([1]; DLBCL patient, 300 mg, 5 months and ongoing): no dose limiting toxicity (DLT) or serious adverse event (SAE) was observed
atrial fibrillation adverse events ([1]; at 100 mg in a patient with MCL and at 200 mg in a patient with CLL): Two AEs of lower grade atrial fibrillation were observed
tolerability / dose limiting toxicities ([1]; humans, 100 mg and 200 mg per dose): well-tolerated with no dose limiting toxicities
Aiolos degradation [2]: degraded
Deauville five-point scale (5PS) ([3]; DLBCL patient, 16-week assessment, 5 at screening): 2
maximum standard uptake value (Max SUV) ([3]; DLBCL patient, 16-week assessment, 17.6 at screening): 2.5
response per Lugano criteria at 8 weeks ([3]; heavily pre-treated non-GCB (ABC subtype) DLBCL patient): complete response
response at the 16-week assessment (FDG-PET CT Scan Disease Assessment) ([3]; non-GCB (ABC subtype) DLBCL patient, FIG. 9): complete confirmed response
killing of lymphoma cells [4]: kills lymphoma cells harboring BTK-C481S mutation
degradation of mutant BTK [5]: degrades multiple novel BTK mutations emerging post BTKi-treatment
